From PubChem BioAssay AID330 (DTP/NCI, 2004) come the findings set out here.

Several values for one entry are separate records, joined by “and”; a condition that tells them apart may be missing. Equal entries are not always repeated. Inconclusive results and toxic doses are left out.

For the assay, the system named is P388 leukemia ip, CD2F1 mice, survival T/C. Description: NCI In Vivo Anticancer Drug Screen. Data for tumor model P388 Leukemia (intraperitoneal) in CD2F1 (CDF1) mice. Conditions: endpoint: median survival time, higher = longer survival. An outline of the steps: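 Mice carrying the transplanted tumor received test compound or vehicle. Survival was recorded in each group, and the value is the treated-group measurement divided by that of the vehicle-treated control group.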

The mark [1] stands for this setting: dose: 50.0 mg/kg/injection, schedule: Q01DX009 (ip), vehicle: saline.
The mark [2] stands for this setting: dose: 100.0 mg/kg/injection, schedule: Q01DX009 (ip), vehicle: saline.
Setting [3] is: dose: 200.0 mg/kg/injection, schedule: Q01DX009 (ip), vehicle: saline.
[4] abbreviates: dose: 100.0 mg/kg/injection, schedule: Q01DX009 (ip), vehicle: saline with Tween-80.
The mark [5] stands for this setting: dose: 25.0 mg/kg/injection, schedule: Q01DX009 (ip), vehicle: saline.
[6] abbreviates: dose: 50.0 mg/kg/injection, schedule: Q01DX009 (ip), vehicle: saline with Tween-80.
Setting [7] is: dose: 200.0 mg/kg/injection, schedule: Q01DX009 (ip), vehicle: saline with Tween-80.

As for `Clc1ccc(C(c2ccccc2Cl)C(Cl)Cl)cc1` (centres undefined), the T/C is 105 % of control (dose: 8.0 mg/kg/injection, schedule: Q03HX024 (ip), vehicle: saline); 100 % of control (dose: 16.0 mg/kg/injection, schedule: Q03HX008 (ip), vehicle: saline); 100 % of control (dose: 16.0 mg/kg/injection, schedule: Q03HX016 (ip), vehicle: saline); 100 % of control (dose: 16.0 mg/kg/injection, schedule: Q03HX024 (ip), vehicle: saline); 100 % of control (dose: 32.0 mg/kg/injection, schedule: Q03HX008 (ip), vehicle: saline); 100 % of control (dose: 32.0 mg/kg/injection, schedule: Q03HX016 (ip), vehicle: saline). The T/C reads like this: (dose: 32.0 mg/kg/injection, schedule: Q03HX024 (ip), vehicle: saline) 100 % of control; (dose: 64.0 mg/kg/injection, schedule: Q01DX009 (ip), vehicle: saline) 90 % of control; (dose: 64.0 mg/kg/injection, schedule: Q03HX008 (ip), vehicle: saline) 100 % of control; (dose: 64.0 mg/kg/injection, schedule: Q03HX016 (ip), vehicle: saline) 115 % of control; (dose: 64.0 mg/kg/injection, schedule: Q03HX024 (ip), vehicle: saline) 110 % of control; (dose: 64.0 mg/kg/injection, schedule: Q04DX003 (ip), vehicle: saline) 104 % of control. The T/C was 109 % of control (dose: 128.0 mg/kg/injection, schedule: Q01DX001 (ip), vehicle: saline); 90 % of control (dose: 128.0 mg/kg/injection, schedule: Q01DX009 (ip), vehicle: saline); 100 % of control (dose: 128.0 mg/kg/injection, schedule: Q03HX008 (ip), vehicle: saline); 110 % of control (dose: 128.0 mg/kg/injection, schedule: Q03HX016 (ip), vehicle: saline); 100 % of control (dose: 128.0 mg/kg/injection, schedule: Q03HX024 (ip), vehicle: saline); 100 % of control (dose: 128.0 mg/kg/injection, schedule: Q04DX003 (ip), vehicle: saline). For the same molecule, the T/C (dose: 128.0 mg/kg/injection, schedule: Q08DX002 (ip), vehicle: saline) is 100 % of control; the T/C (dose: 256.0 mg/kg/injection, schedule: Q01DX001 (ip), vehicle: saline) is 100 % of control; the T/C (dose: 256.0 mg/kg/injection, schedule: Q01DX001 (oral), vehicle: saline) is 104 % of control; the T/C (dose: 256.0 mg/kg/injection, schedule: Q01DX009 (ip), vehicle: saline) is 95 % of control; the T/C (dose: 256.0 mg/kg/injection, schedule: Q01DX009 (oral), vehicle: saline) is 104 % of control; the T/C (dose: 256.0 mg/kg/injection, schedule: Q04DX003 (ip), vehicle: saline) was 100 % of control. Also, the T/C by setting is: (dose: 256.0 mg/kg/injection, schedule: Q04DX003 (oral), vehicle: saline) 100 % of control; (dose: 256.0 mg/kg/injection, schedule: Q08DX002 (ip), vehicle: saline) 90 % of control; (dose: 512.0 mg/kg/injection, schedule: Q01DX001 (ip), vehicle: saline) 109 % of control; (dose: 512.0 mg/kg/injection, schedule: Q01DX001 (oral), vehicle: saline) 100 % of control; (dose: 512.0 mg/kg/injection, schedule: Q01DX009 (ip), vehicle: saline) 86 % of control; (dose: 512.0 mg/kg/injection, schedule: Q01DX009 (oral), vehicle: saline) 109 % of control. The T/C by setting is: (dose: 512.0 mg/kg/injection, schedule: Q04DX003 (ip), vehicle: saline) 90 % of control; (dose: 512.0 mg/kg/injection, schedule: Q04DX003 (oral), vehicle: saline) 100 % of control; (dose: 512.0 mg/kg/injection, schedule: Q08DX002 (ip), vehicle: saline) 100 % of control; (dose: 1024.0 mg/kg/injection, schedule: Q01DX001 (ip), vehicle: saline) 100 % of control; (dose: 1024.0 mg/kg/injection, schedule: Q01DX001 (oral), vehicle: saline) 100 % of control; (dose: 1024.0 mg/kg/injection, schedule: Q01DX009 (oral), vehicle: saline) 100 % of control. Besides, the T/C runs as follows: (dose: 1024.0 mg/kg/injection, schedule: Q04DX003 (ip), vehicle: saline) 90 % of control; (dose: 1024.0 mg/kg/injection, schedule: Q04DX003 (oral), vehicle: saline) 100 % of control; (dose: 1024.0 mg/kg/injection, schedule: Q08DX002 (ip), vehicle: saline) 104 % of control; (dose: 2048.0 mg/kg/injection, schedule: Q01DX001 (oral), vehicle: saline) 109 % of control; (dose: 2048.0 mg/kg/injection, schedule: Q01DX009 (oral), vehicle: saline) 100 % of control; (dose: 2048.0 mg/kg/injection, schedule: Q04DX003 (oral), vehicle: saline) 100 % of control.
For the molecule `CC(Cc1ccc(O)cc1)NCC(O)c1cc(O)cc(O)c1` (centres undefined), the T/C is, setting by setting: under setting [1], 96 % of control; (dose: 66.0 mg/kg/injection, schedule: Q01DX009 (ip), vehicle: saline) 99 % of control and 87 % of control; under setting [2], 99 % of control and 100 % of control; (dose: 150.0 mg/kg/injection, schedule: Q01DX009 (ip), vehicle: saline) 91 % of control and 93 % of control; under setting [3], 112 % of control.
In the case of `Clc1ccc(N=Cc2cccs2)cc1Cl`, the T/C by setting is: (dose: 50.0 mg/kg/injection, schedule: Q01DX009 (ip), vehicle: Klucel (hydroxypropylcellulose) (HPC)) 110 % of control; (dose: 100.0 mg/kg/injection, schedule: Q01DX009 (ip), vehicle: Klucel (hydroxypropylcellulose) (HPC)) 107 % of control; (dose: 200.0 mg/kg/injection, schedule: Q01DX009 (ip), vehicle: Klucel (hydroxypropylcellulose) (HPC)) 110 % of control.
For `CCN(CC)CCCC(C)Nc1cc(C)nc(Nc2nc3cc(Cl)c(Cl)cc3[nH]2)n1` (centres undefined), the T/C by setting is: (dose: 2.5 mg/kg/injection, schedule: Q01DX009 (ip), vehicle: saline with Tween-80) 100 % of control; (dose: 5.0 mg/kg/injection, schedule: Q01DX009 (ip), vehicle: saline with Tween-80) 90 % of control; (dose: 10.0 mg/kg/injection, schedule: Q01DX009 (ip), vehicle: saline with Tween-80) 100 % of control.
In the case of `CCCCOC(=O)/C=C(\Cl)C(=O)OCCCC`, the T/C (dose: 12.5 mg/kg/injection, schedule: Q01DX009 (ip), vehicle: saline with Tween-80) was 102 % of control and 106 % of control and 111 % of control; the T/C (dose: 25.0 mg/kg/injection, schedule: Q01DX009 (ip), vehicle: saline with Tween-80) was 111 % of control and 114 % of control and 118 % of control; the T/C under setting [4] was 86 % of control.
`Cn1c(C(=O)c2cc3ccccc3n2C)cc2ccccc21`: the T/C was 100 % of control under setting [1], 97 % of control under setting [2] and 103 % of control under setting [3].
On to `O=C1NCCNC1c1ccccc1` (centres undefined), for which the T/C under setting [5] was 102 % of control, the T/C under setting [1] is 102 % of control, the T/C under setting [2] was 98 % of control and the T/C under setting [3] was 100 % of control.
With `COc1ccc(Cc2cc(C(C)(C)C)c(O)c(C(C)(C)C)c2)cc1`, the T/C is, setting by setting: (dose: 50.0 mg/kg/injection, schedule: Q01DX005 (ip), vehicle: distilled water + alcohol) 104 % of control; (dose: 100.0 mg/kg/injection, schedule: Q01DX005 (ip), vehicle: distilled water + alcohol) 100 % of control; (dose: 200.0 mg/kg/injection, schedule: Q01DX005 (ip), vehicle: distilled water + alcohol) 93 % of control.
Consider `CCN(CC)C(=S)Sc1nsc(SC(=S)N(CC)CC)c1C#N`, for which the T/C under setting [6] was 94 % of control, the T/C under setting [4] is 94 % of control and the T/C under setting [7] is 94 % of control.
In the case of `C/C(=N\NC(=S)N1CCC(c2ccccc2)CC1)c1nccnc1C`, the T/C is 100 % of control (dose: 50.0 mg/kg/injection, schedule: Q01DX005 (ip), vehicle: saline with Tween-80); 102 % of control (dose: 100.0 mg/kg/injection, schedule: Q01DX005 (ip), vehicle: saline with Tween-80); 100 % of control (dose: 200.0 mg/kg/injection, schedule: Q01DX005 (ip), vehicle: saline with Tween-80).
For `CC(C)CC(N)C(=O)OCN1C(=O)C2C3C=CC(C2C1=O)C1C2C(=O)N(COC(=O)C(N)CC(C)C)C(=O)C2C31` (centres undefined), the T/C reads like this: (dose: 12.5 mg/kg/injection, schedule: Q01DX009 (ip), vehicle: saline) 102 % of control and 105 % of control; under setting [5], 105 % of control and 108 % of control; under setting [1], 109 % of control and 119 % of control; under setting [2], 162 % of control and 177 % of control.
For the molecule `CCCCCCOC(=O)c1ccc(OC)cc1`, the T/C was 104 % of control under setting [6], 106 % of control under setting [4] and 108 % of control under setting [7].
